CC(=O)Oc1ccccc1C(=O)O
solubility (mole fraction)
Details | 283.15 K | 288.15 K | 293.15 K | 298.15 K | 303.15 K | 308.15 K | 313.15 K | 318.15 K | 323.15 K
in acetone | 0.0629 | 0.0733 | 0.0821 | 0.0931 | 0.105 | 0.113 | 0.126 | 0.138 | 0.157
in ethanol | 0.0334 | 0.0426 | 0.0515 | 0.0614 | 0.074 | 0.0876 | 0.102 | 0.122 | 0.141
in ethyl acetate | 0.0267 | 0.0314 | 0.0361 | 0.0413 | 0.0471 | 0.0543 | 0.0651 | 0.0738 | 0.0849
in n-propanol | 0.0254 | 0.0316 | 0.037 | 0.0473 | 0.0576 | 0.0687 | 0.0816 | 0.0971 | 0.118

Source: BigSolDB 2.1
